We go through 24 compounds from patent EP2951180B1, “2,6,7,8 SUBSTITUTED PURINES AS HDM2 INHIBITORS” (Merck Sharp & Dohme Corp., priority 2013, dated 2014).

In general, IC50 refers to the concentration that gives 50% inhibition.

For this assay, the target named is T1, HDM2 (Homo sapiens, UniProt Q00987).
T1 construct: Thioredoxin (N); made in house; host or cells: E. coli strain BL21(DE3)Rosetta
T1 sequence (Q00987 17-125): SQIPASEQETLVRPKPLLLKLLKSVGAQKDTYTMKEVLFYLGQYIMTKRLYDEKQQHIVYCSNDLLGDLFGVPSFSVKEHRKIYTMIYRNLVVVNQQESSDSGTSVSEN
The assay is described as follows: HDM2 FRET assay (inhibition of binding of FITC labeled p53-pocket peptide to HDM2). The conditions noted are these: 0.5 nM HDM2 (residues 17 to 125), 3nM peptide, two hour incubation at room temperature; read-out: FRET IC50. In a few lines:
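Displacement of FITC-p53 peptide (3 nM) from His-tagged HDM2 (0.5 nM) is measured by Tb-to-fluorescein FRET in PBS, 0.01% BSA, 0.01% Tween-20. IC50 values derive from 10-point curves.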
As to `C[C@@H]1[C@@H](C)OCCN1c1nc2nc(-c3noc(=O)[nH]3)nc(-c3cncc(Cl)c3)c2n1C[C@H]1CC[C@H](C)CC1` [Example 16.136, 3-{6-(5-chloropyridin-3-yl)-8-[(2R,3R)-2,3-dimethylmorpholin-4-yl]-7-[(trans-4-methylcyclohexyl)methyl]-7H-purin-2-yl}-1,2,4-oxadiazol-5(4H)-one], the IC50 was 7.19 nM.

As for `C[C@H]1CC[C@H](Cn2c(N3CCOC[C@H]3CF)nc3nc(-c4noc(=O)[nH]4)nc(-c4cccc(Cl)c4)c32)CC1` [Example 16.137, 3-{6-(3-chlorophenyl)-8-[(3S)-3-(fluoromethyl)morpholin-4-yl]-7-[(trans-4-methylcyclohexyl)methyl]-7H-purin-2-yl}-1,2,4-oxadiazol-5(4H)-one], the IC50 is 11.9 nM.

For `Cc1nnc([C@@H]2COCCN2c2nc3nc(-c4noc(=O)[nH]4)nc(-c4cccc(Cl)c4)c3n2C[C@H]2CC[C@H](C)CC2)o1` [Example 16.138, 3-{6-(3-chlorophenyl)-7-[(trans-4-methylcyclohexyl)methyl]-8-[(3S)-3-(5-methyl-1,3,4-oxadiazol-2-yl)morpholin-4-yl]-7H-purin-2-yl}-1,2,4-oxadiazol-5(4H)-one], the IC50 was 79.1 nM.

Turning to `C[C@H]1CC[C@H](Cn2c(N3CCOC[C@H]3CF)nc3nc(-c4n[nH]c(=O)o4)nc(-c4cncc(Cl)c4)c32)CC1` [Example 16.139, 5-{6-(5-chloropyridin-3-yl)-8-[(3S)-3-(fluoromethyl)morpholin-4-yl]-7-[(trans-4-methylcyclohexyl)methyl]-7H-purin-2-yl}-1,3,4-oxadiazol-2(3H)-one], the IC50 was 37.1 nM.

For the compound `C[C@@H]1[C@@H](C)OCCN1c1nc2nc(-c3n[nH]c(=O)o3)nc(-c3cncc(Cl)c3)c2n1C[C@H]1CC[C@H](C)CC1` [Example 16.140, 5-{6-(5-chloropyridin-3-yl)-8-[(2R,3R)-2,3-dimethylmorpholin-4-yl]-7-[(trans-4-methylcyclohexyl)methyl]-7H-purin-2-yl}-1,3,4-oxadiazol-2(3H)-one], the IC50 was 9.45 nM.

With `C[C@H]1OCCN(c2nc3nc(-c4n[nH]c(=O)o4)nc(-c4cccc(Cl)c4)c3n2C[C@H]2CC[C@H](C)CC2)[C@@H]1c1ccccc1` [Example 16.142, 5-{6-(3-chlorophenyl)-7-[(trans-4-methylcyclohexyl)methyl]-8-[(2R,3R)-2-methyl-3-phenylmorpholin-4-yl]-7H-purin-2-yl} - 1,3,4-oxadiazol-2(3H)-one], the IC50 came out at 1.5 nM.

For the compound `C[C@H]1CC[C@H](Cn2c(N3CCOCC34CCC4)nc3nc(-c4noc(=O)[nH]4)nc(-c4cncc(Cl)c4)c32)CC1` [Example 16.144, 3-[6-(5-chloropyridin-3-yl)-7-[(trans-4-methylcyclohexyl)methyl]-8-(8-oxa-5-azaspiro[3.5]non-5-yl)-7H-purin-2-yl]-1,2,4-oxadiazol-5(4H)-one], the IC50 turned out to be 19.1 nM.

As to `C[C@@H]1COC[C@@H](C)N1c1nc2nc(-c3n[nH]c(=O)o3)nc(-c3cccc(Cl)c3)c2n1C[C@H]1CC[C@H](C)CC1` [Example 16.147, 5-{6-(3-chlorophenyl)-8-[(3R,5R)-3,5-dimethylmorpholin-4-yl]-7-[(trans-4-methylcyclohexyl)methyl]-7H-purin-2-yl}-1,3,4-oxadiazol-2(3H)-one], the IC50 is 5.52 nM.

In the case of `CN(C)C(=O)[C@@H]1CCCN1c1nc2nc(-c3noc(=O)[nH]3)nc(-c3cccc(Cl)c3)c2n1C[C@H]1CC[C@H](C)CC1` [Example 16.148, 1-[6-(3-chlorophenyl)-7-[(trans-4-methylcyclohexyl)methyl]-2-(5-oxo-4,5-dihydro-1,2,4-oxadiazol-3-yl)-7H-purin-8-yl]-N,N-dimethyl-L-prolinamide], the 50% inhibitory concentration (IC50) turned out to be 15.1 nM.

Consider `COC[C@@H]1CC[C@@H](COC)N1c1nc2nc(-c3noc(=O)[nH]3)nc(-c3cccc(Cl)c3)c2n1C[C@H]1CC[C@H](C)CC1` [Example 16.149, 3-{8-[(2S,5S)-2,5-bis(methoxymethyl)pyrrolidin-1-yl]-6-(3-chlorophenyl)-7-[(trans-4-methylcyclohexyl)methyl]-7H-purin-2-yl}-1,2,4-oxadiazol-5(4H)-one], for which the IC50 worked out at 3.77 nM.

`CC[C@@H]1[C@@H](C)OCCN1c1nc2nc(-c3noc(=O)[nH]3)nc(-c3cncc(Cl)c3)c2n1C[C@H]1CC[C@H](C)CC1` [Example 16.152, 3-{6-(5-chloropyridin-3-yl)-8-[(2R,3R)-3-ethyl-2-methylmorpholin-4-yl]-7-[(trans-4-methylcyclohexyl)methyl]-7H-purin-2-yl}-1,2,4-oxadiazol-5(4H)-one]: the IC50 is 5.68 nM.

In the case of `CC[C@@H]1[C@@H](C)OCCN1c1nc2nc(-c3n[nH]c(=O)o3)nc(-c3cncc(Cl)c3)c2n1C[C@H]1CC[C@H](C)CC1` [Example 16.153, 5-{6-(5-chloropyridin-3-yl)-8-[(2R,3R)-3-ethyl-2-methylmorpholin-4-yl]-7-[(trans-4-methylcyclohexyl)methyl]-7H-purin-2-yl}-1,3,4-oxadiazol-2(3H)-one], the IC50 stood at 10 nM.

For `COc1ncc(Cl)cc1-c1nc(-c2noc(=O)[nH]2)nc2nc(N3CCOC[C@H]3c3ccccc3)n(C[C@H]3CC[C@H](C)CC3)c12` [Example 16.156, 3-{6-(5-chloro-2-methoxypyridin-3-yl)-7-[(trans-4-methylcyclohexyl)methyl]-8-[(3R)-3-phenylmorpholin-4-yl]-7H-purin-2-yl}-1,2,4-oxadiazol-5(4H)-one], the IC50 was found to be 0.851 nM.

In the case of `COc1ncc(Cl)cc1-c1nc(-c2n[nH]c(=O)o2)nc2nc(N3CCOC[C@H]3c3ccccc3)n(C[C@H]3CC[C@H](C)CC3)c12` [Example 16.157, 5-{6-(5-chloro-2-methoxypyridin-3-yl)-7-[(trans-4-methylcyclohexyl)methyl]-8-[(3R)-3-phenylmorpholin-4-yl]-7H-purin-2-yl} - 1,3,4-oxadiazol-2(3H)-one], the half-inhibitory concentration (IC50) was found to be 0.882 nM.

On to `Cc1ncc(Cl)cc1-c1nc(-c2noc(=O)[nH]2)nc2nc(N3CCOC[C@H]3c3ccccc3)n(C[C@H]3CC[C@H](C)CC3)c12` [Example 16.158, 3-{6-(5-chloro-2-methylpyridin-3-yl)-7-[(trans-4-methylcyclohexyl)methyl]-8-[(3R)-3-phenylmorpholin-4-yl]-7H-purin-2-yl}-1,2,4-oxadiazol-5(4H)-one], for which the IC50 is 0.601 nM.

`Cc1ncc(Cl)cc1-c1nc(-c2n[nH]c(=O)o2)nc2nc(N3CCOC[C@H]3c3ccccc3)n(C[C@H]3CC[C@H](C)CC3)c12` [Example 16.159, 5-{6-(5-chloro-2-methylpyridin-3-yl)-7-[(trans-4-methylcyclohexyl)methyl]-8-[(3R)-3-phenylmorpholin-4-yl]-7H -purin-2-yl}-1,3,4-oxadiazol-2(3H)-one]: the IC50 is 0.704 nM.

For `C[C@H]1CC[C@H](Cn2c(N3CCOC[C@H]3c3ccccc3)nc3nc(-c4noc(=O)[nH]4)nc(-c4cc(Cl)cnc4OCc4ccccc4)c32)CC1` [Example 16.161, 3-{6-[2-(benzyloxy)-5-chloropyridin-3-yl]-7-[(trans-4-methylcyclohexyl)methyl]-8-[(3R)-3-phenylmorpholin-4-yl]-7H-purin-2-yl}-1,2,4-oxadiazol-5(4H)-one], the IC50 was 3.65 nM.

Regarding `C[C@H]1CC[C@H](Cn2c(N3CCOC[C@H]3c3ccccc3)nc3nc(-c4noc(=O)[nH]4)nc(-c4cc(Cl)cnc4O)c32)CC1` [Example 16.162, 3-{6-(5-chloro-2-hydroxypyridin-3-yl)-7-[(trans-4-methylcyclohexyl)methyl]-8-[(3R)-3-phenylmorpholin-4-yl]-7H-purin-2-yl}-1,2,4-oxadiazol-5(4H)-one], the concentration for half-maximal inhibition (IC50) came out at 0.847 nM.

With `C[C@H]1CC[C@H](Cn2c(N3CCOC[C@H]3c3ccccc3)nc3nc(-c4n[nH]c(=O)o4)nc(-c4cc(Cl)cnc4O)c32)CC1` [Example 16.163, 5-{6-(5-chloro-2-hydroxypyridin-3-yl)-7-[(trans-4-methylcyclohexyl)methyl]-8-[(3R)-3-phenylmorpholin-4-yl]-7H-purin-2-yl} -1,3,4-oxadiazol-2(3H)-one], the IC50 came out at 1.23 nM.

`C[C@H]1CC[C@H](Cn2c(N3CCOC[C@H]3c3ccccc3)nc3nc(-c4noc(=O)[nH]4)nc(C4CCCCC4)c32)CC1` [Example 16.165, 3-{6-cyclohexyl-7-[(trans-4-methylcyclohexyl)methyl]-8-[(3R)-3-phenylmorpholin-4-yl]-7H-purin-2-yl}-1,2,4-oxadiazol-5(4H)-one]: the IC50 stood at 5.08 nM.

Consider `C[C@H]1CC[C@H](Cn2c(N3CCOC[C@H]3c3ccccc3)nc3nc(-c4n[nH]c(=O)o4)nc(C4CCCCC4)c32)CC1` [Example 16.166, 5-{6-cyclohexyl-7-[(trans-4-methylcyclohexyl)methyl]-8-[(3R)-3-phenylmorpholin-4-yl]-7H -purin-2-yl}-1,3,4-oxadiazol-2(3H)-one], for which the 50% inhibitory concentration (IC50) was 9.22 nM.

As for `C[C@H]1CC[C@H](Cn2c(N3CCOC[C@H]3c3ccccc3)nc3nc(-c4noc(=O)[nH]4)nc(C4CCOCC4)c32)CC1` [Example 16.167, 3-{7-[(trans-4-methylcyclohexyl)methyl]-8-[(3R)-3-phenylmorpholin-4-yl]-6-(tetrahydro-2H-pyran-4-yl)-7H-purin-2-yl}-1,2,4-oxadiazol-5(4H)-one], the IC50 worked out at 46.6 nM.

Regarding `C[C@H]1CC[C@H](Cn2c(N3CCOC[C@H]3c3ccccc3)nc3nc(-c4n[nH]c(=O)o4)nc(C4CCOCC4)c32)CC1` [Example 16.168, 5-{7-[(trans-4-methylcyclohexyl)methyl]-8-[(3R)-3-phenylmorpholin-4-yl]-6-(tetrahydro-2H-pyran-4-yl)-7H-purin-2-yl} -1,3,4-oxadiazol-2(3H)-one], the IC50 was 67.1 nM.

Regarding `CC1CCCC(c2nc(-c3noc(=O)[nH]3)nc3nc(N4CCOC[C@H]4c4ccccc4)n(C[C@H]4CC[C@H](C)CC4)c23)C1` (stereo partly drawn) [Example 16.169, 3-{6-(3-methylcyclohexyl)-7-[(trans-4-methylcyclohexyl)methyl]-8-[(3R)-3-phenylmorpholin-4-yl]-7H -purin-2-yl}-1,2,4-oxadiazol-5(4H)-one], the IC50 stood at 2.53 nM.
